Measurements: the NIST ThermoML archive (doi:10.1021/je060271a)
Numbers after ± are expanded uncertainties.

Details: 323.15 K, Liquid, Vibrating tube method

Structure (SMILES): CCCCC(=O)OCC(COC(=O)CCCC)(COC(=O)CCCC)COC(=O)CCCC [pentaerythritol tetrapentanoate]
- mass density (25366 kPa): 1011.6 ± 1.2 kg/m3
- mass density (25395 kPa): 1011.5 ± 1.2 kg/m3
- mass density (25431 kPa): 1011.6 ± 1.2 kg/m3
- mass density (25460 kPa): 1011.6 ± 1.2 kg/m3
- mass density (25495 kPa): 1011.6 ± 1.2 kg/m3
- mass density (25525 kPa): 1011.6 ± 1.2 kg/m3
- mass density (25555 kPa): 1011.6 ± 1.2 kg/m3
- mass density (25590 kPa): 1011.6 ± 1.2 kg/m3
- mass density (25620 kPa): 1011.7 ± 1.2 kg/m3
- mass density (25651 kPa): 1011.7 ± 1.2 kg/m3
- mass density (25684 kPa): 1011.7 ± 1.2 kg/m3
- mass density (25714 kPa): 1011.8 ± 1.2 kg/m3
- mass density (25750 kPa): 1011.8 ± 1.2 kg/m3
- mass density (25780 kPa): 1011.9 ± 1.2 kg/m3
- mass density (25817 kPa): 1011.9 ± 1.2 kg/m3
- mass density (25847 kPa): 1011.7 ± 1.2 kg/m3
- mass density (25878 kPa): 1011.8 ± 1.2 kg/m3
- mass density (25908 kPa): 1012 ± 1.2 kg/m3
- mass density (25945 kPa): 1011.9 ± 1.2 kg/m3
- mass density (25976 kPa): 1011.9 ± 1.2 kg/m3
- mass density (26007 kPa): 1011.9 ± 1.2 kg/m3
- mass density (26044 kPa): 1011.9 ± 1.2 kg/m3
- mass density (26076 kPa): 1011.8 ± 1.2 kg/m3
- mass density (26107 kPa): 1012 ± 1.2 kg/m3
- mass density (26145 kPa): 1012 ± 1.2 kg/m3
- mass density (26176 kPa): 1012 ± 1.2 kg/m3
- mass density (26208 kPa): 1012.1 ± 1.2 kg/m3
- mass density (26245 kPa): 1012.1 ± 1.2 kg/m3
- mass density (26277 kPa): 1012 ± 1.2 kg/m3
- mass density (26308 kPa): 1012.1 ± 1.2 kg/m3
- mass density (26346 kPa): 1012 ± 1.2 kg/m3
- mass density (26378 kPa): 1012.2 ± 1.2 kg/m3
- mass density (26410 kPa): 1012.2 ± 1.2 kg/m3
- mass density (26448 kPa): 1012.2 ± 1.2 kg/m3
- mass density (26480 kPa): 1012.3 ± 1.2 kg/m3
- mass density (26512 kPa): 1012.2 ± 1.2 kg/m3
- mass density (26551 kPa): 1012.2 ± 1.2 kg/m3
- mass density (26584 kPa): 1012.3 ± 1.2 kg/m3
- mass density (26617 kPa): 1012.3 ± 1.2 kg/m3
- mass density (26656 kPa): 1012.3 ± 1.2 kg/m3
- mass density (26689 kPa): 1012.2 ± 1.2 kg/m3
- mass density (26722 kPa): 1012.4 ± 1.2 kg/m3
- mass density (26754 kPa): 1012.4 ± 1.2 kg/m3
- mass density (26794 kPa): 1012.3 ± 1.2 kg/m3
- mass density (26826 kPa): 1012.3 ± 1.2 kg/m3
- mass density (26860 kPa): 1012.3 ± 1.2 kg/m3
- mass density (26900 kPa): 1012.5 ± 1.2 kg/m3
- mass density (26933 kPa): 1012.5 ± 1.2 kg/m3
- mass density (26967 kPa): 1012.4 ± 1.2 kg/m3
- mass density (27007 kPa): 1012.6 ± 1.2 kg/m3
- mass density (27041 kPa): 1012.5 ± 1.2 kg/m3
- mass density (27075 kPa): 1012.5 ± 1.2 kg/m3
- mass density (27109 kPa): 1012.6 ± 1.2 kg/m3
- mass density (27150 kPa): 1012.7 ± 1.2 kg/m3
- mass density (27183 kPa): 1012.7 ± 1.2 kg/m3
- mass density (27218 kPa): 1012.7 ± 1.2 kg/m3
- mass density (27258 kPa): 1012.7 ± 1.2 kg/m3
- mass density (27292 kPa): 1012.6 ± 1.2 kg/m3
- mass density (27327 kPa): 1012.6 ± 1.2 kg/m3
- mass density (27362 kPa): 1012.7 ± 1.2 kg/m3
- mass density (27404 kPa): 1012.7 ± 1.2 kg/m3
- mass density (27440 kPa): 1012.7 ± 1.2 kg/m3
- mass density (27475 kPa): 1012.8 ± 1.2 kg/m3
- mass density (27510 kPa): 1012.9 ± 1.2 kg/m3
- mass density (27552 kPa): 1012.9 ± 1.2 kg/m3
- mass density (27586 kPa): 1012.9 ± 1.2 kg/m3
- mass density (27628 kPa): 1012.9 ± 1.2 kg/m3
- mass density (27663 kPa): 1012.9 ± 1.2 kg/m3
- mass density (27698 kPa): 1012.9 ± 1.2 kg/m3
- mass density (27733 kPa): 1012.9 ± 1.2 kg/m3
- mass density (27776 kPa): 1013.1 ± 1.2 kg/m3
- mass density (27811 kPa): 1013.1 ± 1.2 kg/m3
- mass density (27847 kPa): 1013 ± 1.2 kg/m3
- mass density (27890 kPa): 1013.1 ± 1.2 kg/m3
- mass density (27926 kPa): 1013.1 ± 1.2 kg/m3
- mass density (27968 kPa): 1013.1 ± 1.2 kg/m3
- mass density (28005 kPa): 1013.1 ± 1.2 kg/m3
- mass density (28041 kPa): 1013.1 ± 1.2 kg/m3
- mass density (28077 kPa): 1013.2 ± 1.2 kg/m3
- mass density (28122 kPa): 1013.2 ± 1.2 kg/m3
- mass density (28158 kPa): 1013.1 ± 1.2 kg/m3
- mass density (28195 kPa): 1013.3 ± 1.2 kg/m3
- mass density (28238 kPa): 1013.2 ± 1.2 kg/m3
- mass density (28276 kPa): 1013.3 ± 1.2 kg/m3
- mass density (28313 kPa): 1013.4 ± 1.2 kg/m3
- mass density (28357 kPa): 1013.2 ± 1.2 kg/m3
- mass density (28396 kPa): 1013.3 ± 1.2 kg/m3
- mass density (28435 kPa): 1013.4 ± 1.2 kg/m3
- mass density (28472 kPa): 1013.4 ± 1.2 kg/m3
- mass density (28511 kPa): 1013.4 ± 1.2 kg/m3
- mass density (28557 kPa): 1013.5 ± 1.2 kg/m3
- mass density (28595 kPa): 1013.5 ± 1.2 kg/m3
- mass density (28633 kPa): 1013.5 ± 1.2 kg/m3
- mass density (28672 kPa): 1013.6 ± 1.2 kg/m3
- mass density (28719 kPa): 1013.5 ± 1.2 kg/m3
- mass density (28798 kPa): 1013.6 ± 1.2 kg/m3
- mass density (28964 kPa): 1013.6 ± 1.2 kg/m3
- mass density (28998 kPa): 1013.7 ± 1.2 kg/m3
- mass density (29025 kPa): 1013.8 ± 1.2 kg/m3
- mass density (29053 kPa): 1013.7 ± 1.2 kg/m3
- mass density (29087 kPa): 1013.7 ± 1.2 kg/m3
- mass density (29115 kPa): 1013.8 ± 1.2 kg/m3
- mass density (29143 kPa): 1013.8 ± 1.2 kg/m3
- mass density (29325 kPa): 1013.9 ± 1.2 kg/m3
- mass density (29354 kPa): 1014 ± 1.2 kg/m3
- mass density (29388 kPa): 1013.9 ± 1.2 kg/m3
- mass density (29418 kPa): 1014 ± 1.2 kg/m3
- mass density (29452 kPa): 1014 ± 1.2 kg/m3
- mass density (29480 kPa): 1013.9 ± 1.2 kg/m3
- mass density (29509 kPa): 1014.1 ± 1.2 kg/m3
- mass density (29544 kPa): 1014 ± 1.2 kg/m3
- mass density (29573 kPa): 1014 ± 1.2 kg/m3
- mass density (29602 kPa): 1014.1 ± 1.2 kg/m3
- mass density (29638 kPa): 1014.2 ± 1.2 kg/m3
- mass density (29667 kPa): 1014.1 ± 1.2 kg/m3
- mass density (29697 kPa): 1014.1 ± 1.2 kg/m3
- mass density (29733 kPa): 1014.2 ± 1.2 kg/m3
- mass density (29762 kPa): 1014.2 ± 1.2 kg/m3
- mass density (29792 kPa): 1014.2 ± 1.2 kg/m3
- mass density (29822 kPa): 1014.1 ± 1.2 kg/m3
- mass density (29857 kPa): 1014.2 ± 1.2 kg/m3
- mass density (29886 kPa): 1014.2 ± 1.2 kg/m3
- mass density (29917 kPa): 1014.3 ± 1.2 kg/m3
- mass density (29952 kPa): 1014.3 ± 1.2 kg/m3
- mass density (29982 kPa): 1014.4 ± 1.2 kg/m3
- mass density (30012 kPa): 1014.3 ± 1.2 kg/m3
- mass density (30049 kPa): 1014.4 ± 1.2 kg/m3
- mass density (30078 kPa): 1014.4 ± 1.2 kg/m3
- mass density (30109 kPa): 1014.5 ± 1.2 kg/m3
- mass density (30146 kPa): 1014.5 ± 1.2 kg/m3
- mass density (30177 kPa): 1014.4 ± 1.2 kg/m3
- mass density (30208 kPa): 1014.5 ± 1.2 kg/m3
- mass density (30238 kPa): 1014.4 ± 1.2 kg/m3
- mass density (30275 kPa): 1014.4 ± 1.2 kg/m3
- mass density (30306 kPa): 1014.5 ± 1.2 kg/m3
- mass density (30342 kPa): 1014.6 ± 1.2 kg/m3
- mass density (30373 kPa): 1014.5 ± 1.2 kg/m3
- mass density (30404 kPa): 1014.6 ± 1.2 kg/m3
- mass density (30435 kPa): 1014.6 ± 1.2 kg/m3
- mass density (30472 kPa): 1014.7 ± 1.2 kg/m3
- mass density (30504 kPa): 1014.6 ± 1.2 kg/m3
- mass density (30535 kPa): 1014.7 ± 1.2 kg/m3
- mass density (30573 kPa): 1014.7 ± 1.2 kg/m3
- mass density (30604 kPa): 1014.7 ± 1.2 kg/m3
- mass density (30641 kPa): 1014.6 ± 1.2 kg/m3
- mass density (30673 kPa): 1014.7 ± 1.2 kg/m3
- mass density (30705 kPa): 1014.8 ± 1.2 kg/m3
- mass density (30742 kPa): 1014.7 ± 1.2 kg/m3
- mass density (30774 kPa): 1014.9 ± 1.2 kg/m3
- mass density (30806 kPa): 1014.9 ± 1.2 kg/m3
- mass density (30838 kPa): 1014.8 ± 1.2 kg/m3
- mass density (30876 kPa): 1014.9 ± 1.2 kg/m3
- mass density (30908 kPa): 1014.9 ± 1.2 kg/m3
- mass density (30947 kPa): 1014.9 ± 1.2 kg/m3
- mass density (30979 kPa): 1014.9 ± 1.2 kg/m3
- mass density (31012 kPa): 1014.9 ± 1.2 kg/m3
- mass density (31051 kPa): 1014.9 ± 1.2 kg/m3
- mass density (31084 kPa): 1015 ± 1.2 kg/m3
- mass density (31116 kPa): 1015.1 ± 1.2 kg/m3
- mass density (31149 kPa): 1015 ± 1.2 kg/m3
